Experimental data published in publication PMC9569914, “Unique Structural Fold of LonBA Protease from Bacillus subtilis, a Member of a Newly Identified Subfamily of Lon Proteases” (International Journal of Molecular Sciences, 2022).

Key:
BsLonBA = target: T1, BsLonBA (Bacillus subtilis, UniProt P42425); test: IC50 from PepTBE peptidase assay of full-length enzyme; format: biochemical
T1 construct: gene lon2; P domain, residues 347–552 (crystal); full-length BsLonBA-H6 (IC50)

EcLonA = target: T2, EcLonA (Escherichia coli, UniProt P0A9M0); test: inhibition of PepTBE hydrolysis (peptidase assay, DTDP detection); also suppresses β-casein proteolysis; format: biochemical
T2 construct: gene lon; EcLonA-H6 (C-terminal hexahistidine tag)
T2 sequence (P0A9M0 2-784): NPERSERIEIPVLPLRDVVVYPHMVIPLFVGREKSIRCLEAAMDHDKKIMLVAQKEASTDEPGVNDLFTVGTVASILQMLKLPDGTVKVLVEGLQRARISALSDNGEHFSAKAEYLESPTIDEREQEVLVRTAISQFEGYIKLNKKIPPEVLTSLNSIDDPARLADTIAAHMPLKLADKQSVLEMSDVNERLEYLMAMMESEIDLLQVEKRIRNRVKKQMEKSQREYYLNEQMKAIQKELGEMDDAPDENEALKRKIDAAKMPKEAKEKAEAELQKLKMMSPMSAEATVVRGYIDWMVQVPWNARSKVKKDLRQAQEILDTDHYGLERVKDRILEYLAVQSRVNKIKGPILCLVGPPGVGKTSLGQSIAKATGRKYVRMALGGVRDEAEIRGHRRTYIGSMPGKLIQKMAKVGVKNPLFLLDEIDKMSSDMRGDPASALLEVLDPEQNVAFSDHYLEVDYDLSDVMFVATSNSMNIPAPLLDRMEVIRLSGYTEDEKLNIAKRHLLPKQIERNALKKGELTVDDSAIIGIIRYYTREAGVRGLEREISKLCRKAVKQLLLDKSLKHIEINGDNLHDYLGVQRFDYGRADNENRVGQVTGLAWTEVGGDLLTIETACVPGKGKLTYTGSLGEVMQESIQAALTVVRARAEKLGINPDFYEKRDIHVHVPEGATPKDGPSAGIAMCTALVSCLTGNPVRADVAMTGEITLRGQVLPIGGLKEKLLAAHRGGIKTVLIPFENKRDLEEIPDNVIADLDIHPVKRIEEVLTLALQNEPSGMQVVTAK

[1] = target: the molecule itself; test: SEC; HiPrep 26/60 Sephacryl S-200 HR sizing column before crystallization, 25 mM Tris pH 7.5, 200 mM NaCl, 2 mM TCEP, 4-8 °C; no bortezomib
[2] = target: the molecule itself; test: crystal structure; P domain with bortezomib (molar ratio 1:6), 10 mM MgCl2, hanging drop, 35% PEG400 pH 7.8; space group P6_(3), two molecules in the asymmetric unit, hexamer by the crystallographic 3-fold axis; 1.9 Å

T1 sequence (P42425 whole entry, the tested form may be a part): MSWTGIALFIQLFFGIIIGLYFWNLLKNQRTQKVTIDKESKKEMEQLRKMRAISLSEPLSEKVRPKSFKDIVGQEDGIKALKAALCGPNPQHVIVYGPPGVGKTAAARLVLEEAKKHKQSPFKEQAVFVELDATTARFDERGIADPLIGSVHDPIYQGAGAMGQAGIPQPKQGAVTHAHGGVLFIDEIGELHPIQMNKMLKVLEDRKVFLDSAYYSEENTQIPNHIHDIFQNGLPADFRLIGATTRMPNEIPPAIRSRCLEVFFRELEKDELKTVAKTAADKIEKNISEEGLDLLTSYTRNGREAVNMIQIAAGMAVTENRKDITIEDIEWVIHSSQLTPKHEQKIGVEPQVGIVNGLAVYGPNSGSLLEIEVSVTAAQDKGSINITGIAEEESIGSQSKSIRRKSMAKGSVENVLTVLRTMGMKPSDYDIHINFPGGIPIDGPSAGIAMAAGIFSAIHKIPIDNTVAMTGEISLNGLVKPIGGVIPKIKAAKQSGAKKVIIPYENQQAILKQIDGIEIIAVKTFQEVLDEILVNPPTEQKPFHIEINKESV

With `CC(C)C[C@H](NC(=O)[C@H](Cc1ccccc1)NC(=O)c1cnccn1)B(O)O` [bortezomib] the IC50 (BsLonBA) was 1150 nM and the IC50 (EcLonA) was 50 nM.

B1: P domain of BsLonBA (residues 347-552) (domain or fragment, Bacillus subtilis strain 168, UniProt P42425 347-552, looked up)
chain: GVEPQVGIVNGLAVYGPNSGSLLEIEVSVTAAQDKGSINITGIAEEESIGSQSKSIRRKSMAKGSVENVLTVLRTMGMKPSDYDIHINFPGGIPIDGPSAGIAMAAGIFSAIHKIPIDNTVAMTGEISLNGLVKPIGGVIPKIKAAKQSGAKKVIIPYENQQAILKQIDGIEIIAVKTFQEVLDEILVNPPTEQKPFHIEINKESV
modifications: bortezomib covalently bound to the Oγ of Ser445 via the boronate moiety (in the crystal only; added after the sizing column)
notes: LonBA protease (previously assigned as LonB) of Bacillus subtilis strain 168, protease (P) domain, residues Gly347-Val552 of the 552-residue enzyme; catalytic dyad Ser445 and Lys488; Dimer on the sizing column, hexamer in the crystal by crystallographic symmetry (two chains in the asymmetric unit); Modelled in the maps: residues 352-547 in chain A and 348-535 in chain B; also called protease …
With B1 the “stoichiometry N” value [1] was 2 and the “stoichiometry N” value [2] was 6.
